In general, TGI refers to the concentration giving total growth inhibition. A low value points to more potent growth arrest. The term GI50 denotes the concentration at which growth is held to half of that of the control.

Among the test systems are SK-MEL-2 melanoma; SR leukemia; MDA-N; T-47D breast; HCC-2998 colon; CCRF-CEM leukemia; NCI-H226 lung; UACC-257 melanoma; 786-0 renal; NCI/ADR-RES ovarian; SNB-75 CNS; NCI-H522 lung.
What all share (assay): DTP human tumour cell line panel, 48 h

The structures appear in SMILES notation. Values joined by “and” are separate entries in the source; they are usually repeats but may differ in a detail not shown here. Identical values can stand only once.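 Step 1: Grow cells in 96-well plates. Step 2: Expose to compound for 48 hours at 5 concentrations. Step 3: Interpolate endpoints linearly; if unreached, use highest concentration. GI50 marks 50% less growth. TGI denotes the concentration required for complete inhibition of growth.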

On to `Clc1ccc(/C=C/c2nc(-c3ccc(Cl)cc3)cn3c2nc2ccccc23)cc1`, for which the TGI with SK-MEL-2 melanoma, in the assay on SR leukemia, in the assay on MDA-N, in the assay with T-47D breast, with HCC-2998 colon and in the assay with CCRF-CEM leukemia was greater than 100 µM each time. Besides, the TGI with NCI-H226 lung, in the assay with UACC-257 melanoma, with 786-0 renal and with NCI/ADR-RES ovarian was greater than 100 µM each time.

Turning to `O=S(=O)(c1ccccc1)[C@@H]1[C@H]2C=C[C@](CS)(O2)[C@H]1S(=O)(=O)c1ccccc1`, the total growth inhibition concentration (TGI) in the assay on SNB-75 CNS is greater than 100 µM; with SR leukemia, greater than 100 µM; with MDA-N, greater than 100 µM; in the assay on T-47D breast, greater than 100 µM; with HCC-2998 colon, greater than 100 µM; in the assay with CCRF-CEM leukemia, 8.33 µM. The TGI in the assay on NCI-H226 lung was greater than 100 µM; with NCI-H522 lung, 31.7 µM; with UACC-257 melanoma, greater than 100 µM; in the assay on 786-0 renal it was 87.2 µM; in the assay on NCI/ADR-RES ovarian, greater than 100 µM.

Take `Oc1ccc(NCc2cc(O)ccc2O)cc1`: the TGI in the assay with SK-MEL-2 melanoma is 36.3 µM; in the assay with SNB-75 CNS, 33 µM; in the assay with MDA-N it was 11.1 µM; with T-47D breast it was 52.1 µM; in the assay on HCC-2998 colon, 30.8 µM; in the assay with NCI-H226 lung, 50.4 µM. Besides, the figures for the TGI with UACC-257 melanoma, with 786-0 renal and in the assay with NCI/ADR-RES ovarian were 32 µM, 31.9 µM and 51.3 µM, respectively.

Consider `CCOC(=O)c1c(SC)nc(-c2ccc(Cl)cc2)sc1=N`, for which the TGI is 52.7 µM with SK-MEL-2 melanoma; 99.4 µM in the assay with SNB-75 CNS; greater than 100 µM with T-47D breast; 63.9 µM with HCC-2998 colon; greater than 100 µM in the assay with CCRF-CEM leukemia; 80.4 µM in the assay on NCI-H226 lung. In addition, the TGI in the assay on UACC-257 melanoma was greater than 100 µM; in the assay on 786-0 renal, greater than 100 µM; with NCI/ADR-RES ovarian, 73.5 µM.

For `COc1cccc2c1C(=O)c1c(O)c3c(c(O)c1C2=O)C[C@@](O)(C(C)=O)C[C@@H]3OC1CC(N(C)C)C(O)C(C)O1` (stereo not given in full), the concentration for 50% growth inhibition (GI50) in the assay on SK-MEL-2 melanoma was less than 0.0113 µM; in the assay on SNB-75 CNS, 0.138 µM and 0.0219 µM; in the assay with SR leukemia, 0.00237 µM; in the assay with CCRF-CEM leukemia, 0.0291 µM; in the assay with NCI-H226 lung, 0.00108 µM; in the assay on NCI-H522 lung, 0.036 µM and 0.021 µM. Besides, the GI50 in the assay with UACC-257 melanoma was 0.0435 µM and < 0.0185 µM. Besides, the total growth inhibition concentration (TGI) with SK-MEL-2 melanoma is 0.308 µM and 0.0915 µM; with MDA-N it was 0.00154 µM; in the assay with T-47D breast it was 0.00329 µM; in the assay on HCC-2998 colon, 0.27 µM and 0.205 µM; in the assay with 786-0 renal, 1.36 µM; with NCI/ADR-RES ovarian, 1.87 µM.

On to `CC1C(O)[C@@]2(OC[C@@]34C(=O)CC5(O)[C@H](CCC6Cc7nc8c(nc7C[C@]65C)CC5CC[C@@H]6C7=C[C@H]9O[C@@]%10(O[C@@](C)(CO)C[C@@H]%10O)C(C)[C@@]9(O)[C@]7(C)[C@@H](O)CC6[C@]5(C)C8)C3=CC[C@H]4C2C)OC1(C)C` (stereo not given in full), for which the concentration for total growth inhibition (TGI) with SK-MEL-2 melanoma was 0.0141 µM; in the assay with SNB-75 CNS, 0.215 µM; in the assay with HCC-2998 colon, greater than 3.55 µM; in the assay on CCRF-CEM leukemia, 0.0966 µM; with NCI-H226 lung, greater than 3.55 µM; in the assay with NCI-H522 lung it was 0.083 µM. The TGI in the assay on UACC-257 melanoma was 0.0212 µM; in the assay on NCI/ADR-RES ovarian it was greater than 3.55 µM.

For the molecule `COc1cc(CCC(=O)O)c2cc3ccccc3cc2c1O`, the concentration for total growth inhibition (TGI) in the assay on SK-MEL-2 melanoma amounted to 36.6 µM; in the assay on SR leukemia, 33.1 µM; with MDA-N it was 32.5 µM; with T-47D breast, 36.3 µM; in the assay with HCC-2998 colon it was 65.2 µM; in the assay with CCRF-CEM leukemia, 13.8 µM. For the same molecule, the TGI in the assay on NCI-H226 lung came out at 78 µM; in the assay on NCI-H522 lung, 45.1 µM; in the assay with UACC-257 melanoma, 31 µM; in the assay with 786-0 renal, 30.4 µM; in the assay with NCI/ADR-RES ovarian, 80.7 µM.

Turning to `O=NN(CCCl)C(=O)Nc1ccc(Cl)c(Cl)c1`, the TGI is greater than 100 µM with SK-MEL-2 melanoma; greater than 100 µM with SNB-75 CNS; greater than 100 µM with HCC-2998 colon; greater than 100 µM in the assay on CCRF-CEM leukemia; greater than 100 µM in the assay with NCI-H226 lung; greater than 89.5 µM with NCI-H522 lung. Besides, the TGI with UACC-257 melanoma and in the assay on NCI/ADR-RES ovarian was greater than 100 µM throughout.

For the molecule `O=[N+]([O-])c1ccc(/C=N/n2c(CCc3n[nH]c(=S)n3/N=C/c3ccc([N+](=O)[O-])o3)n[nH]c2=S)o1`, the TGI was found to be 42.9 µM with SK-MEL-2 melanoma; 80.7 µM in the assay with SR leukemia; 26.7 µM with MDA-N; 62.8 µM with T-47D breast; 33 µM with HCC-2998 colon; 67.7 µM in the assay with CCRF-CEM leukemia. In addition, the TGI is greater than 100 µM in the assay on NCI-H226 lung; 47.3 µM in the assay with NCI-H522 lung; 83.8 µM with UACC-257 melanoma; 31.9 µM with 786-0 renal; 88.7 µM with NCI/ADR-RES ovarian.

As to `O=C1CSc2sc(=S)sc2S1`, the TGI with SK-MEL-2 melanoma, with SNB-75 CNS, in the assay on HCC-2998 colon, in the assay on CCRF-CEM leukemia, in the assay with NCI-H226 lung and with NCI-H522 lung was greater than 100 µM in each case. The TGI in the assay with UACC-257 melanoma and in the assay on NCI/ADR-RES ovarian was greater than 100 µM in each case.

Take `O=[P+](O)c1cccs1`: the TGI with CCRF-CEM leukemia and in the assay on NCI-H522 lung was greater than 100 µM throughout.

Take `CC(C)(C)OC(=O)N1CCCC1C(=O)NCCNc1ccc(NCCNC(=O)C2CCCN2C(=O)OC(C)(C)C)c2c1C(=O)c1ccccc1C2=O` (stereo not given): the TGI in the assay on SK-MEL-2 melanoma is 38.5 µM; in the assay with SNB-75 CNS it was 87.9 µM; with SR leukemia, greater than 100 µM; with HCC-2998 colon, 25.7 µM; in the assay with CCRF-CEM leukemia, greater than 100 µM; with NCI-H226 lung it was 46.6 µM. Further, the total growth inhibition concentration (TGI) was 29.7 µM with NCI-H522 lung, 29.6 µM in the assay on UACC-257 melanoma, 28 µM with 786-0 renal and 29.6 µM with NCI/ADR-RES ovarian.

For the molecule `Cc1ccc(NC(=O)CC(=O)n2nc(-c3ccccc3)c(N=Nc3ccccc3C(=O)O)c2-c2ccccc2)cc1`, the total growth inhibition concentration (TGI) in the assay on SK-MEL-2 melanoma, in the assay with SR leukemia, in the assay on HCC-2998 colon, in the assay with NCI-H226 lung and with NCI-H522 lung was greater than 100 µM each time.

These data come from PubChem BioAssay (NCI).
